Experiment [1] concerns eosinophil peroxidase (EPO) activity. The experiment in a line: Passive conjunctival anaphylaxis, eosinophil peroxidase (EPO) activity in conjunctivae (allergic inflammation). It is filed as in vivo, guinea pig. The note with it: 0.1% topical 20 μL drop 60 min prior to and 8 hours after challenge; for EPO Activity % Inhibition: conjunctivae 24 hours after challenge, versus vehicle only, * P < 0.05; for EPO Activity Mean: conjunctivae collected 24 hours after challenge. Here is the method: (§1) Drugs were prepared in standard ophthalmic suspension vehicle and allowed to vortex overnight. Cilomilast and olopatadine were prepared in the same drop by preparing separate 0.2% formulations and then combining them 50:50 to yield a 0.1% concentration of each drug. In groups where cilomilast and olopatadine were given in consecutive drops, olopatadine was applied first followed 5 minutes later by cilomilast. All topical drops were administered as a single 20 μL application. Guinea pigs (male Hartley outbred, 250-300 g) were divided into groups of six. Animals were passively sensitized to ovalbumin by a single subconjunctival injection to the right eye of 10 μL of undiluted anti-ovalbumin guinea pig serum (antiserum). One group was injected with saline only. Twenty-four hours after sensitization all groups were topically challenged with 0.5 mg of ovalbumin in saline to the right eye. Animals were pre-treated with drug or vehicle 60 minutes prior to challenge. Thirty minutes after topical challenge each animal was scored by a masked observer for clinical signs of conjunctivitis, redness/congestion, swelling, and tearing/discharge, with a total score of 0 to 10. Animals were dosed a second time with drug or vehicle 8 hours after challenge. Animals were euthanized 24 hours after challenge and conjunctivae were collected and assayed for eosinophil peroxidase (EPO) activity, an indirect marker of tissue eosinophil concentration. Briefly, tissue samples were weighed frozen, then mechanically homogenized in 50 mM HEPES buffer, pH 6.5, containing 0.5% cetyltrimethylammonium chloride and 6 mM KBr. Homogenates were freeze-thawed three times and sonicated.

In experiment [2] the test system is Guinea Pig Model of Passive Conjunctival Anaphylaxis. The experiment in a line: Passive conjunctival anaphylaxis, acute phase clinical score of conjunctivitis. The note with it: 0.1% topical 20 μL drop 60 min prior to ovalbumin challenge, scored 30 min after challenge; for Clinical Score Mean: total score 0 to 10, groups of six; for Clinical Score % Inhibition: versus vehicle only, * P < 0.05. It is filed as in vivo. The protocol: as §1

Regarding `COc1ccc([C@]2(C#N)CC[C@@H](C(=O)O)CC2)cc1OC1CCCC1` [Cilomilast], in experiment [1], the “EPO Activity % Inhibition” value is on record as 62.8* % and the “EPO Activity Mean” value is reported as 582.26 ng EPO/mg tisue. Moreover, in experiment [2], the “Clinical Score Mean” value was found to be 4.2 and the “Clinical Score % Inhibition” value was found to be 37.5%.
As for `CN(C)CC/C=C1/c2ccccc2COc2ccc(CC(=O)O)cc21` [Olopatadine], in experiment [1], the “EPO Activity % Inhibition” value turned out to be 15.8% and the “EPO Activity Mean” value is recorded as 1320.23 ng EPO/mg tisue. For the same molecule, in experiment [2], the “Clinical Score Mean” value was found to be 2.2 and the “Clinical Score % Inhibition” value is listed as 67.5* %.

These data come from patent publication US20090182035A1, “USE OF A COMBINATION OF OLOPATADINE AND CILOMILAST TO TREAT NON-INFECTIOUS RHINITIS AND ALLERGIC CONJUNCTIVITIS” (Alcon Research, Ltd., priority 2007, published 2009).
